Measured values taken from patent publication US6136835A (priority 1999, dated 2000).
Values joined by “and” are separate entries in the source; they are usually repeats but may differ in a detail not shown here. Equal entries are not always repeated. Where two headings read alike, the source gives them in different places.

How the values were obtained:
[1] = system: human influenza virus, strain AT2/Taiwan/1/64; assay: Anti viral evaluation with human influenza virus in mice; assay type: in vivo; details: 21 days observation, virus dose ~90% lethality
murine melanoma (B16) = details: for % Increase in survival time relative to control (100%) / Survivors in cancer model: mouse, in vivo
Description: In an in vivo mouse model for murine melanoma (B16) fluconazole was tested alone and in combination with adriamycin (doxorubicin) at various doses.

chronic hepatitis C = details: interferon with or without ribavarin; cited from earlier work
[2] = system: solid tumors removed from patients; assay: In Vitro Human Tumor Colony Forming Units Test; assay type: cell-based; details: for effective against tumors (number of tumors): continuous exposure or single dose experiment
Description: (§1) Solid tumors removed from patients are minced into 2 to 5 mm fragments and immediately placed in McCoy's Medium 5A plus 10% heat inactivated newborn calf serum lus 1% penicillin/streptomycin. Within 4 hours, these solid tumors are mechanically disassociated with scissors, forced through No. 100 stainless steel mesh, through 25 gauge needles, and then washed with McCoys medium as described above. Ascitic, pleural, pericardial fluids and bone marrow are obtained by standard techniques. The fluid or marrow is placed in sterile containers containing 10 units of preservative free heparin per ml. of malignant fluid or marrow. After centrifugation at 150× g for 10 minutes, the cells are harvested and washed with McCoy's medium plus 10% heat inactivated calf serum. The viability of cell suspensions is determined on a hemocytometer with trypan blue.
Cells to be cloned are suspended in 0.3% agar in enriched CMRL1066 supplemented with 15% heat inactivated horse serum, penicillin (100 units/ml), streptomycin ([…]), glutamine (2 mM ), insulin (3 units/ml), asparagine (0.6 mg/ml), and HEPES buffer (2 mM ). For the continuous exposure test each compound is added to the above mixture. Cells are placed in 35 mm petri dishes in a top layer of agar over an underlayer of agar to prevent growth of fibroblasts. Three plates are prepared for each data point. The plates are placed in a 37° C. incubator, and are removed on day 14 for counting of the number of colonies in each plate. The number of colonies (defined as 50 cells) formed in the 3 compound treated plates is compared to the number of colonies formed in the 3 control plates, and the percent colonies surviving at the concentration of compound can be tabulated. Three positive control plates are used to determine survival rate. Orthosodium vanadate at 200 μg/ml is used as the positive control. If there is <30% cells in the positive control when compared to the untreated control, the test is evaluated. […]

influenza = assay: in vitro model for influenza
Rhinovirus = details: in vivo Rhinovirus
ovarian cancer = assay: In Vitro Human Tumor Colony Forming Units Test, ovarian; assay type: cell-based; details: 50.0 μg/ml, continuous exposure
Description: as §1
(§2) Cells to be cloned are suspended in 0.3% agar in enriched CMRL1066 supplemented with 15% heat inactivated horse serum, penicillin (100 units/ml), streptomycin ([…]), glutamine (2 mM ), insulin (3 units/ml), asparagine (0.6 mg/ml), and HEPES buffer (2 mM ). For the continuous exposure test each compound is added to the above mixture. […] If there is <30% cells in the positive control when compared to the untreated control, the test is evaluated. […]

[3] = system: lung, non-small cell cancer; assay: In Vitro Human Tumor Colony Forming Units Test, lung, non-small cell; assay type: cell-based; details: 50.0 μg/ml, continuous exposure
Description: as §1, §2

## NC12CC3CC(CC(C3)C1)C2 [Amantadine]
[1]; 75 mg/kg oral
  Percent Mortality: 0%

## COc1cccc2c1C(=O)c1c(O)c3c(c(O)c1C2=O)C[C@@](O)(C(=O)CO)C[C@@H]3O[C@H]1C[C@H](N)[C@H](O)[C@H](C)O1 [Adriamycin]
Murine melanoma (B16); fluconazole 0, adriamycin 2 mg/kg
  Toxic deaths: 0
Murine melanoma (B16); fluconazole 0, adriamycin 3 mg/kg
  Toxic deaths: 0
Murine melanoma (B16); fluconazole 0, adriamycin 4 mg/kg
  Toxic deaths: 0
Murine melanoma (B16)
  % Increase in survival time relative to control (100%): cures occurred
  Survivors in cancer model: 6/10 and 8/10 and 10/10

## interferon
Chronic hepatitis C
  response rate: about 25%

## OC(Cn1cncn1)(Cn1cncn1)c1ccc(F)cc1F [Fluconazole, 2-(2,4-difluorophenyl)-1,3-bis(1H-1,2,4-triazol-1-yl)propan-2-ol]
[2]; 0.5 μg/ml
  effective against tumors (number of tumors): 0/3
[2]; 5.0 μg/ml
  effective against tumors (number of tumors): 0/13
[2]; 50.0 μg/ml, continuous exposure
  tumors with <50% survival (over all): 4/13
influenza
  activity in an in vitro model for influenza: did not show activity
Rhinovirus
  activity in screening test: Nor was it active
Ovarian cancer
  effectiveness against ovarian cancer: effective
Murine melanoma (B16); fluconazole 175 mg/kg, adriamycin 0
  Toxic deaths: 0
Murine melanoma (B16); fluconazole 350 mg/kg, adriamycin 0
  Toxic deaths: 0
Murine melanoma (B16); fluconazole 700 mg/kg, adriamycin 0
  Toxic deaths: 0
Murine melanoma (B16)
  % Increase in survival time relative to control (100%): 120% and 116% and 117%
  Survivors in cancer model: 0
[1]; 350 mg/kg oral
  Percent Mortality: 0%
[1]; 700 mg/kg oral
  Percent Mortality: 30%
[3]
  effectiveness against lung, non-small cell cancer: effective
